Experimental data taken from patent publication US20230310388A1, “Methods and Compositions for Treating Fungal Infections” (Neoculi Pty Ltd, priority 2020, published 2023).
Several values for one entry are separate records, joined by “and”; a condition that tells them apart may be missing. Equal entries are not always repeated.

Tests used:
Assay type in all cases: cell-based
Cryptococcus neoformans = assay: CLSI broth microdilution MIC (Example 4)
Protocol: (§1) Antifungal minimum inhibitory concentration (MIC) testing was undertaken as recommended by the CLSI. Briefly, antifungal susceptibility tests were performed for amphotericin B, robenidine (NCL812) and robenidine (NCL) analogs (NCL004, NCL020, NCL023, NCL024, NCL062, NCL094, NCL097, NCL110, NCL113, NCL114, NCL115, NCL135, NCL139, NCL180, NCL181, NCL195, NCL219, NCL220, NCL228, NCL247, NCL250, NCL259, NCL260, NCL263, NCL265, NCL269, NCL274) by standard broth microdilution method (CLSI) in RPMI 1640. Various concentrations (ranging from high to low) of the selected compounds were prepared in RPMI 1640 medium by double dilution in 96-well microtitre plates. Each well contained an inoculum of approximately 2×10^3 cells/mL. The wells without addition of drugs served as negative (no inoculum) and positive (inoculum only) growth controls. Microtitre plates were incubated at 35° C. for 24-48 hours. […] Antifungal MICs were determined for each isolate in duplicate; if the values obtained were different, the MIC test was repeated a third time.

Candida albicans = assay: CLSI broth microdilution MIC (Example 4)
Protocol: as §1

[1] = test system: Candida albicans ATCC14053; assay: Broth micro-dilution screen at 16 μg/mL and MIC (Example 9); conditions: for Screen at 16 μg/mL: single concentration 16 μg/mL, Growth or No growth of C. albicans ATCC14053; for MIC: C. albicans ATCC14053, test range 0.25-64 μg/mL, duplicate
Protocol: The antifungal activity of 201 NCL analogs against Candida albicans ATCC14053 in vitro was investigated. A broth micro-dilution method was used, according to CLSI guidelines as described. NCL analogs were dissolved in DMSO and originally screened at a single concentration of 16 μg/mL.

Row | SMILES | MIC at 24-48 hours (Cryptococcus neoformans; Cryptococcus neoformans SA1) | MIC at 24-48 hours (Cryptococcus neoformans; Cryptococcus neoformans SA2) | MIC at 24-48 hours (Candida albicans; Candida albicans ATCC 90028) | MIC at 24-48 hours (Candida albicans; Candida albicans SA3) | MIC [1] | Screen at 16 μg/mL [1]
1 | OCC(=NNc1cc(NN=C(CO)c2ccc(Cl)cc2)ncn1)c1ccc(Cl)cc1 [NCL180] | >32 µg/mL | >32 µg/mL | >32 µg/mL | >32 µg/mL | – | Growth
2 | Nc1nc(N/N=C/c2cc(O)c(O)c(O)c2)cc(N/N=C/c2cc(O)c(O)c(O)c2)n1 [NCL247] | >32 µg/mL | >32 µg/mL | >32 µg/mL | >32 µg/mL | 2 µg/mL and 4 µg/mL | No growth
3 | Cl.N=C(N)N/N=C/c1ccc(C(F)(F)F)cc1F [NCL263] | >32 µg/mL | >32 µg/mL | >32 µg/mL | >32 µg/mL | – | Growth
4 | CC(=NNC(=N)N)c1c[nH]c2ccccc12 [NCL269] | >32 µg/mL | >32 µg/mL | >32 µg/mL | >32 µg/mL | – | Growth
5 | Cc1nc[nH]c1C=NNC(=N)N.Cl [NCL283] | – | – | – | – | – | Growth

Further lines, with some results ahead:

Row | MIC at 24-48 hours (Cryptococcus neoformans; Cryptococcus neoformans SA1) | MIC at 24-48 hours (Cryptococcus neoformans; Cryptococcus neoformans SA2) | MIC at 24-48 hours (Candida albicans; Candida albicans ATCC 90028) | MIC at 24-48 hours (Candida albicans; Candida albicans SA3) | MIC [1] | SMILES | Screen at 16 μg/mL [1]
6 | >32 µg/mL | >32 µg/mL | >32 µg/mL | >32 µg/mL | – | Clc1ccc(C=NNc2cc(NN=Cc3ccc(Cl)cc3)ncn2)cc1 [NCL181] | Growth
7 | >32 µg/mL | >32 µg/mL | >32 µg/mL | >32 µg/mL | 0.5 µg/mL and 1 µg/mL | CCCCCCNC(=O)N(N=Cc1ccc(Cl)cc1)C(N)=NN=Cc1ccc(Cl)cc1 [NCL228] | No growth
8 | >32 µg/mL | >32 µg/mL | >32 µg/mL | >32 µg/mL | – | Clc1ccc(/C=N/CC/N=C/c2ccc(Cl)cc2)cc1 [NCL250] | Growth
9 | >32 µg/mL | >32 µg/mL | >32 µg/mL | >32 µg/mL | – | Clc1ccc(CNCCNCc2ccc(Cl)cc2)cc1 [NCL260] | Growth
